Results published in ChEMBL document CHEMBL3044553, “Amino steroids as antimalarial agents” (2008).
≈ marks a conversion by molar mass, not a printed value.

Test system: Plasmodium falciparum
Assay: Antimalarial activity against chloroquine-sensitive Plasmodium falciparum NF54 assessed as inhibition of maturation of rings into schizonts stage
Assay type: functional

MIC [µg/mL]	Structure (SMILES)
10 (≈ 42.4 µM)	NCCCNc1ccnc2cc(Cl)ccc12
50 (≈ 93 µM)	CC(=O)O[C@@H]1CC[C@@]2(C)[C@H](CC[C@@H]3[C@@H]2C[C@H](OC(C)=O)[C@]2(C)[C@@H]([C@H](C)CCNCc4ccccc4)CC[C@@H]32)C1
0.5 (≈ 0.766 µM)	CC(=O)O[C@@H]1CC[C@@]2(C)[C@H](CC[C@@H]3[C@@H]2C[C@H](OC(C)=O)[C@]2(C)[C@@H]([C@H](C)CNCCCNc4ccnc5cc(Cl)ccc45)CC[C@@H]32)C1
2 (≈ 8.01 µM)	NCCCCNc1ccnc2cc(Cl)ccc12
0.04 (≈ 0.125 µM)	CCN(CC)CCCC(C)Nc1ccnc2cc(Cl)ccc12 (stereo unspecified) [CHLOROQUINE]
1 (≈ 1.5 µM)	CC(=O)O[C@@H]1CC[C@@]2(C)[C@H](CC[C@@H]3[C@@H]2C[C@H](OC(C)=O)[C@]2(C)[C@@H]([C@H](C)CNCCCCNc4ccnc5cc(Cl)ccc45)CC[C@@H]32)C1
> 50	CC(=O)O[C@@H]1CC[C@@]2(C)[C@H](CC[C@@H]3[C@@H]2C[C@H](OC(C)=O)[C@]2(C)[C@@H]([C@H](C)CCNC(C)C)CC[C@@H]32)C1
> 10	CCCCNC[C@@H](C)[C@H]1CC[C@H]2[C@@H]3CC[C@@H]4C[C@H](OC(C)=O)CC[C@]4(C)[C@H]3C[C@H](OC(C)=O)[C@]12C
10 (≈ 21 µM)	CC(=O)O[C@@H]1CC[C@@]2(C)[C@H](CC[C@@H]3[C@@H]2C[C@H](OC(C)=O)[C@]2(C)[C@@H]([C@H](C)CNC(C)C)CC[C@@H]32)C1
2 (≈ 3.82 µM)	CC(=O)O[C@@H]1CC[C@@]2(C)[C@H](CC[C@@H]3[C@@H]2C[C@H](OC(C)=O)[C@]2(C)[C@@H]([C@H](C)CNCc4ccccc4)CC[C@@H]32)C1
> 50	CCCCNCC[C@@H](C)[C@H]1CC[C@H]2[C@@H]3CC[C@@H]4C[C@H](OC(C)=O)CC[C@]4(C)[C@H]3C[C@H](OC(C)=O)[C@]12C
